Assay results reported in article PMC6950245, “Identification and Characterization of ShSPI, a Kazal-Type Elastase Inhibitor from the Venom of Scolopendra Hainanum” (Toxins, 2019).
Where a SMILES comes first, the peptide text is derived from it. Bridges are numbered along the chain shown (N, C = ends).

How the values were obtained:
[1] = target: T1, human neutrophil elastase (HNE) (Homo sapiens, UniProt P08246); assay: Protease inhibition assay, human neutrophil elastase (chromogenic substrate, Dixon method); type: biochemical
T1 construct: purchased Sigma-Aldrich E8140
T1 sequence (P08246 30-267): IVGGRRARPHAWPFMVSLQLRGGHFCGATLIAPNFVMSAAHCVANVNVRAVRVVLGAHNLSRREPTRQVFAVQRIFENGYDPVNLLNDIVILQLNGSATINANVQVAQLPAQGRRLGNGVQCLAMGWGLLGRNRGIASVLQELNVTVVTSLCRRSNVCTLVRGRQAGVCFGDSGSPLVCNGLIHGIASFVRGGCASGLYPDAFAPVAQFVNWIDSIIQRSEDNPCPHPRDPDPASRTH
Text: (§1) Human neutrophils elastase (HNE, E8140), porcine pancreatic elastase (PPE, E0127), cathepsin G (CG, C4428), human trypsin (T6424), α-chymotrypsin from human pancreas (C8946), and thrombin from human plasma (T4393) were all purchased from Sigma-Aldrich (USA). Factor Xa (FXa, HFXa 1011) and Factor XIIa (FXIIa, HFXIIa 1212a) were from Enzyme Research Laboratories (South Bend, IN, USA). Kallikrein from human plasma (420307) was from Merck Millipore (Billerica, MA, USA).
Substrate for HNE and PPE (MeOSuc-Ala-Ala-Pro-Val-pNA, 324696) was purchased from Merck Millipore (USA). Substrates for CG (Succinyl-Ala-Ala-Pro-Phe-pNA, 573462), trypsin (Nalpha-Benzoyl-L-arginine 4-nitroanilide hydrochloride, B3133), FXa (CH3OCO-D-CHA-Gly-Arg-pNA-AcOH, F3301), chymotrypsin (N-Succinyl-Gly-Gly-Phe-pNA, S1899), thrombin (β-Ala-Gly-Arg-pNA diacetate, T3068), and kallikrein (Z-Phe-Arg 7-amido-4-methylcoumarin hydrochloride, C9521) were purchased from Sigma-Aldrich (USA).
(§2) As mentioned in our previous study, experiments for protease inhibitory activity were assayed in buffer (0.05 M Tris-HCl, pH 7.8) at 37 °C. […] At the end of the incubation, the reaction was initiated by the addition of the exclusive substrate solution and monitored by recording the absorbance at 405 nm every 30 s for 30 min. Enzyme activity in each well was calculated based on the initial slope of the reaction curve, and percentage of the initial slope of the uninhibited reaction was expressed. The inhibition constant Ki value was determined according to the Dixon method.

[2] = target: T2, porcine pancreatic elastase (PPE) (Sus scrofa, UniProt P00772); assay: Surface plasmon resonance, ShSPI immobilized, PPE injected; conditions: SPR Biacore 3000, ShSPI on CM5 chip, PPE injected 180 s at 10 μL/min, HBS-P buffer, Langmuir binding fit; read-out: ka, PPE
T2 construct: purchased Sigma-Aldrich E0127
Experimental: (§3) Sensor chips CM5 (BR100012), 10 mM acetate buffer (BR100350, pH 4.0), amine coupling kit (BR100050), and HBS-P buffer (BR100826, used as running buffer) were all obtained from GE Healthcare Bio-sciences AB (Uppsala, Sweden). Data were collected and analyzed by BIAcore System (Version 3000, GE Healthcare Life Sciences, Pittsburgh, PA, USA) and BIA evaluation software (Version 3.0, GE Healthcare Life Sciences, Pittsburgh, PA, USA).
(§4) Before testing, ShSPI (100 μg/mL in acetate buffer, pH 4.0) was immobilized to the surface of CM5 chip. Following a standard amine coupling chemistry, running buffer was used to reach equilibration. HNE or PPE (doubling dilution) was injected over the immobilized ShSPI at a flow rate of 10 μL/min, and the association rate (ka, M^−1s^−1) was determined. After 3 min, running buffer was applied to the surface, and the dissociation rate (kd, s^−1) was determined over 15 min for PPE and 30 min for HNE, and another 500 μL of running buffer were injected at a flow rate of 20 μL/min to rebalance the chip. The equilibrium association constant (KA, M^−1) and the equilibrium dissociation constant (KD, M) were determined by ka/kd and kd/ka, respectively.

[3] = target: T1, human neutrophil elastase (HNE); assay: Surface plasmon resonance, ShSPI immobilized, HNE injected; conditions: SPR Biacore 3000, ShSPI on CM5 chip, HNE injected 180 s at 10 μL/min, HBS-P buffer, Langmuir binding fit; read-out: ka, HNE
Experimental: as §3, §4

[4] = Plasma stability, read out by enzyme inhibitory activity; type: in vitro ADME; conditions: lyophilized human plasma resuspended in water, 500 nM, 37 °C, 0-48 h, triplicate samples
Experimental: Lyophilized human plasma (400100, Cayman, Ann Arbor, MI, USA) was resuspended in sterile water according to the instruction, then ShSPI was added to each equivalent volume with a final concentration of 500 nM, and samples were co-incubated at 37 °C for two days. Triplicate samples were collected at selected time points (0, 6, 12, 18, 24, 30, 36, 42, and 48 h) and protease activity was tested as described above.

[5] = target: T2, porcine pancreatic elastase (PPE); assay: Protease inhibition assay, porcine pancreatic elastase (chromogenic substrate, Dixon method); type: biochemical; conditions: 0.05 M Tris-HCl pH 7.8, 37 °C, 10 min pre-incubation, PPE 1 μg/mL, substrate MeOSuc-Ala-Ala-Pro-Val-pNA 30, 60, 90 μg/mL, absorbance 405 nm
Text: as §1
Substrate for HNE and PPE (MeOSuc-Ala-Ala-Pro-Val-pNA, 324696) was purchased from Merck Millipore (USA). […]
as §2

[6] = target: T2, porcine pancreatic elastase (PPE); parameters: method as in PMID 2049103; conditions: reported; cited from earlier work

T2 sequence (P00772 27-266): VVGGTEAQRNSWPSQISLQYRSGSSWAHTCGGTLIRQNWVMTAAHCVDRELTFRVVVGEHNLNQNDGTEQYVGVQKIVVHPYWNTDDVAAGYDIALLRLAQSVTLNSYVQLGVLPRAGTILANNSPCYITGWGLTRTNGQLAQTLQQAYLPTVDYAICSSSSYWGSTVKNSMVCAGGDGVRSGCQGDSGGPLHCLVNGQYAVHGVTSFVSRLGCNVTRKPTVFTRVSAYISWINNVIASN

Compound | Ki [1] [nM] | kon [2] [M⁻¹ s⁻¹] | kon [3] [M⁻¹ s⁻¹] | Stability in human plasma [4] | Ki [5] [nM] | Inhibitory activity to PPE (literature) [6]
CC[C@H](C)[C@@H]1NC(=O)[C@H](C)NC(=O)[C@@H]2CCCN2C(=O)[C@@H]2CSSC[C@H](NC(=O)[C@H](CO)NC(=O)[C@H](CC(N)=O)NC(=O)[C@H](CO)NC(=O)[C@H](Cc3ccc(O)cc3)NC(=O)[C@H](CCSC)NC(=O)[C@H](CCCNC(=N)N)NC(=O)CNC(=O)[C@H](Cc3ccccc3)NC(=O)[C@H](CCC(=O)O)NC(=O)[C@H](CC(=O)O)NC(=O)[C@H](Cc3ccccc3)NC(=O)[C@H](C(C)C)NC(=O)[C@@H]3CCCN3C(=O)[C@H](CCC(N)=O)NC(=O)[C@H](Cc3ccc(O)cc3)NC1=O)C(=O)N[C@@H](CCC(=O)O)C(=O)N[C@@H](CCSC)C(=O)N[C@@H](CCC(N)=O)C(=O)N[C@@H](CCCNC(=N)N)C(=O)N[C@@H](C)C(=O)N[C@@H](CCCNC(=N)N)C(=O)N[C@H](C(=O)N[C@@H](CC(C)C)C(=O)N[C@@H](CCCNC(=N)N)C(=O)NCC(=O)O)CSSC[C@H](N)C(=O)N1CCC[C@H]1C(=O)N[C@@H](CCC(N)=O)C(=O)N[C@@H](C(C)C)C(=O)N2 [ShSPI] (H-CPQVCPAIYQPVFDEFGRMYSNSCEMQRARCLRG-OH; disulfide 1-31, 5-24) | 12.6 ± 2 | 45000 | 4500 | no significant degradation over 48 h | 226 ± 20 | 
CC(C)(C)C(=O)Oc1ccc(S(=O)(=O)Nc2ccccc2C(=O)NCC(=O)O)cc1 [sivelestat] |  |  |  |  |  | little inhibitory activity
